System: patients with advanced solid tumors
Assay: Phase 1 trial: adverse events (CTCAE), DLT and MTD
Format: in vivo, human
Method: The phase 1 trial was a two-part, multicenter, open-label, nonrandomized study to evaluate the safety and preliminary efficacy of HA121-28.
Safety, tolerability, and PK of HA121-28 was assessed in dose-escalation part. The single-patient accelerated titration was carried out at 25 mg and 50 mg; then, the dose escalation proceeded according to a “3 + 3” design in dose range of 100 to 800 mg. Escalation to a higher dose level was considered by the satisfactory review of safety results from the previous lower dose during the first cycle.
The dose-expansion part aims to further access the safety and efficacy of HA121-28 at the selected doses based on data from the dose-escalation part. The RP2D was determined by investigators in view of a thorough review of safety, PK, and efficacy results.
In phase 1 trial, during the dose-escalation part, patients first administered HA121-28 in a single ascending dose under the fasted state, then followed up for seven days. Then, patients received ascending doses of HA121-28 (q.d.) on a 21-day on and 7-day off treatment scheme for a 28-day cycle. For patients deemed beneficial from the treatment by investigators, treatment could remain until disease progression, or they discontinued from the study. In the dose-expansion part of phase 1, as well as phase 2, patients received HA121-28 (q.d.) at the selected doses on a 21-day on and 7-day off treatment scheme until disease progression, or they discontinued from the study.
Treatment-emergent adverse events (TEAEs) were documented during the entire study period. The predefined adverse event of special interest (AESI) was ≥ grade 3 prolonged QT interval. Tumor imaging was performed using contrast-enhanced computed tomography or magnetic resonance imaging at screening, Day 28 of the first cycle, then approximately every eight weeks till the end of the study for phase 1; in phase 2, imaging was scheduled at screening, and every eight weeks during the first 40 weeks, followed by every 12 weeks for the rest of the study period. RECIST 1.1 was used by the independent review committee or investigators for assessment of tumor response. After the original assessment, a repeated assessment was required around four weeks later to confirm a complete or partial response.
The primary endpoints of phase 1 were to investigate the MTD, dose-limiting toxicities, and the incidence and severity of TEAEs. Each TEAE was graded according to the Common Terminology Criteria for Adverse Events (CTCAE, version 5.0) and coded by Medical Dictionary for Regulatory Activities (MedDRA, version 21.0). The secondary endpoints included calculating PK parameters, assessing the ORR and DCR at the recommended dose by investigators as per RECIST 1.1. The exploratory endpoint was PFS.
If grade 2 or higher toxicity related to the study drug occurs in Groups 1 and 2 (as determined by the investigator), dose escalation will proceed using a 3+3 design starting from that dose level. If no DLT is observed at the 800 mg/d dose level after dose escalation, a meeting of investigators will be convened to decide whether to proceed with further dose escalation based on the available PK data, safety, and tolerability information.
5. Definition of DLT and MTD
The following events related to the study drug (including those that are definitely related, highly likely to be related, and possibly related):
(1) Grade 4 hematologic toxicity or grade 3 neutropenia accompanied by a fever of 38.5℃ or higher, or grade 3 thrombocytopenia accompanied by severe bleeding.
(2) Patients who discontinued the medication for more than 7 days due to unresolved toxicity reactions or who discontinued the medication more than twice due to toxicity […]
(3) In the context of supportive treatment, diarrhea of grade 2 lasting more than 7 days, or grade 3 diarrhea lasting more than 3 days.

COc1cc2c(Nc3ccc(Br)cc3F)ncnc2cc1OCCCCN(C)C.Cl.Cl [HA121-28, N-(4-bromo-2-fluorophenyl)-7-(4-(dimethylamino)butoxy)-6-methoxy quinazolin-4-amine dihydrochloride]
0 No. (%): Serious TRAE: AST increased (Phase 1, 300 mg (N=4)) | Serious TRAE: Abdominal Pain (Phase 1, 300 mg (N=4)) | Serious TRAE: Abdominal distension (Phase 1, 300 mg (N=4)) | Serious TRAE: Acute cholecystitis (Phase 1, 300 mg (N=4)) | Serious TRAE: Acute pancreatitis (Phase 1, 300 mg (N=4)) | Serious TRAE: Anal abscess (Phase 1, 300 mg (N=4)) | Serious TRAE: Any (Phase 1, 300 mg (N=4)) | Serious TRAE: Aortic intramural hematoma (Phase 1, 300 mg (N=4)) | Serious TRAE: Arrhythmia (Phase 1, 300 mg (N=4)) | Serious TRAE: Blood bilirubin increased (Phase 1, 300 mg (N=4)) | Serious TRAE: Blood creatinine increased (Phase 1, 300 mg (N=4)) | Serious TRAE: COVID-19 (Phase 1, 300 mg (N=4)) | Serious TRAE: Cardiac tamponade (Phase 1, 300 mg (N=4)) | Serious TRAE: Coronary artery atherosclerosis (Phase 1, 300 mg (N=4)) | Serious TRAE: Death (Phase 1, 300 mg (N=4)) | Serious TRAE: Diarrhea (Phase 1, 300 mg (N=4)) | Serious TRAE: Drug eruption (Phase 1, 300 mg (N=4)) | Serious TRAE: Dyspnea (Phase 1, 300 mg (N=4)) | Serious TRAE: Embolism (Phase 1, 300 mg (N=4)) | Serious TRAE: Erythema multiforme (Phase 1, 300 mg (N=4)) | Serious TRAE: Headache (Phase 1, 300 mg (N=4)) | Serious TRAE: Hemoptysis (Phase 1, 300 mg (N=4)) | Serious TRAE: Hydronephrosis (Phase 1, 300 mg (N=4)) | Serious TRAE: Hypertension (Phase 1, 300 mg (N=4)) | Serious TRAE: Hypoalbuminemia (Phase 1, 300 mg (N=4)) | Serious TRAE: Intestinal obstruction (Phase 1, 300 mg (N=4)) | Serious TRAE: Intra-abdominal fluid collection (Phase 1, 300 mg (N=4)) | Serious TRAE: Intracranial tumor hemorrhage (Phase 1, 300 mg (N=4)) | Serious TRAE: Liver injury (Phase 1, 300 mg (N=4)) | Serious TRAE: Lung adenocarcinoma (Phase 1, 300 mg (N=4)) | Serious TRAE: Malignant neoplasm progression (Phase 1, 300 mg (N=4)) | Serious TRAE: Multiple organ dysfunction syndrome (Phase 1, 300 mg (N=4)) | Serious TRAE: Nausea (Phase 1, 300 mg (N=4)) | Serious TRAE: Nephrolithiasis (Phase 1, 300 mg (N=4)) | Serious TRAE: Platelet counts decreased (Phase 1, 300 mg (N=4)) | Serious TRAE: Pleural effusion (Phase 1, 300 mg (N=4)) | Serious TRAE: Pneumonia (Phase 1, 300 mg (N=4)) | Serious TRAE: Pneumonitis (Phase 1, 300 mg (N=4)) | Serious TRAE: Prolonged QT interval (Phase 1, 300 mg (N=4)) | Serious TRAE: Pulmonary embolism (Phase 1, 300 mg (N=4)) | Serious TRAE: Pyrexia (Phase 1, 300 mg (N=4)) | Serious TRAE: Rash (Phase 1, 300 mg (N=4)) | Serious TRAE: Rectal hemorrhage (Phase 1, 300 mg (N=4)) | Serious TRAE: Respiratory failure (Phase 1, 300 mg (N=4)) | Serious TRAE: Seizure (Phase 1, 300 mg (N=4)) | Serious TRAE: Septic shock (Phase 1, 300 mg (N=4)) | Serious TRAE: Sudden cardiac arrest (Phase 1, 300 mg (N=4)) | Serious TRAE: Sudden death (Phase 1, 300 mg (N=4)) | Serious TRAE: Upper respiratory tract infection (Phase 1, 300 mg (N=4)) | Serious TRAE: Ventricular tachycardia (Phase 1, 300 mg (N=4)) | Serious TRAE: Vomiting (Phase 1, 300 mg (N=4)) | Serious TRAE: Weight loss (Phase 1, 300 mg (N=4)) | Serious TEAE: ALT increased (Phase 1, 450 mg (N=79)) | Serious TEAE: AST increased (Phase 1, 450 mg (N=79)) | Serious TEAE: Abdominal Pain (Phase 1, 450 mg (N=79)) | Serious TEAE: Abdominal distension (Phase 1, 450 mg (N=79))
1 (1.3) No. (%): Serious TEAE: Acute cholecystitis (Phase 1, 450 mg (N=79))

Source: paper PMC11868595, “Safety, pharmacokinetics and efficacy of HA121-28 in patients with advanced solid tumors and RET fusion-positive non-small-cell lung cancer: a multicenter, open-label, single-arm phase 1/2 trial” (Signal Transduction and Targeted Therapy, 2025)
